Reference: patent publication US11649248B2, “Oxadiazaspiro compounds for the treatment of drug abuse and addiction” (ESTEVE PHARMACEUTICALS, S.A., priority 2015, dated 2023)

Molecular target: human σ1 receptor (Homo sapiens (Human), UniProt Q99720)
Experiment: Human σ1 receptor radioligand assay
Format: binding
Settings: transfected HEK-293 membranes, [3H](+)-pentazocine radioligand
Procedure: Human σ1 Receptor Radioligand Assay
The assay was carried out with 7 μg of membrane suspension, 5 nM of [^3H](+)-pentazocine in either absence or presence of either buffer or 10 μM Haloperidol for total and non-specific binding, respectively. Binding buffer contained Tris-HCl 50 mM at pH 8. Plates were incubated at 37° C. for 120 minutes. […] Filters were dried and counted at approximately 40% efficiency in a MicroBeta scintillation counter (Perkin-Elmer) using EcoScint liquid scintillation cocktail

Sequence of human σ1 receptor (Q99720 whole entry): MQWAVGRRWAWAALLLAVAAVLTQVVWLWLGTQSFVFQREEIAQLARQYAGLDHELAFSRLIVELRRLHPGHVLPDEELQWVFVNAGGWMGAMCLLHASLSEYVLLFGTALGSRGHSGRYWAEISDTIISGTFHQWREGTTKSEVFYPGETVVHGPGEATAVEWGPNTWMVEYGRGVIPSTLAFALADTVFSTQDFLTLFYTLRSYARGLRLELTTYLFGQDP

Compound: CCN1CC2(CCN(CCC(C)(C)C)CC2)O[C@@H](C)C1=O [Example 52, (S)-9-(3,3-dimethylbutyl)-4-ethyl-2-methyl-1-oxa-4,9-diazaspiro[5.5]undecan-3-one]
- Ki: < 500 nM
